Test results from patent US10813868B2, “Method of improving hair volume” (priority 2014, dated 2020).

Legend:
[1] = Hair switch volume test (switches dosed, combed straight, dried overnight, image projection measured); conditions: for % benefit: 2% solution; for Volume: same batch of switches, 0.2 ml of 2% solution; for Volume / volume (projection of the switch image on to the screen): combed straight, dried overnight; for volume (projection of the switch image on to the screen): 0.2 ml of 2% solution per 2 g switch
Procedure: Dark brown European wavy #6 switches (from 2 different batches) of length 25 cm and weight 2 g were dosed with 0.2 ml each of 2% glucosamine.HCl salt solution. Control switches were wetted with water. All switches were combed straight and left to dry overnight. When dry the switches were combed straight and pictures taken. […] (Here volume refers to the projection of the switch image on to the screen and is given in mm^2).
Dark brown European wavy #6 switches of length 25 cm and weight 2 gms (from the same batch of switches), were dosed with 0.2 ml each of 2% solutions of various mono and diglucosamine salts. Control switches were treated with water.
All switches were combed straight and left to dry overnight.
When dry the switches were combed straight and pictures taken. […] (Here volume refers to the projection of the switch image on to the screen and is given in mm^2). The percentage benefit (i.e. increase in volume) with respect to control (water) is also given.

[2] = Half head test on a mannequin head, styled with a blow dryer; conditions: 2% solution on left half vs water on right half; picture the day following styling
Procedure: FIG. 1 is an image of a mannequin head taken the day following a test performed with one half (right hand side) treated with water and the other half (left hand side) treated with 2% glucosamine.HCI salt solution and followed by styling with a blow dryer. A half head test on a mannequin head was performed with one half (right hand side) treated with water and the other half (left hand side) treated with 2% glucosamine.HCl salt solution. The head was styled with a blow dryer for volume up benefit. FIG. 1 is a picture taken the day following the styling.

[3] = Example 2, increase in volume with respect to control (water)

Row | Compound | % benefit [1, 3] | Volume ([1]; Example 2) | other results
1 | N[C@H]1C(O)O[C@H](CO)[C@@H](O)[C@@H]1O.O=C(O)/C=C\C(=O)O (some centres unmarked) [glucosamine maleate] | 30.1% | 18450 mm^2 | –
2 | glucosamine glutamate | 30.9% | 18563 mm^2 | –
3 | N[C@H]1C(O)O[C@H](CO)[C@@H](O)[C@@H]1O.O=C(O)/C=C/C(=O)O (some centres unmarked) [glucosamine fumarate] | 18.5% | 16802 mm^2 | –
4 | diglucosamine glutamate | 38.0% | 19575 mm^2 | –
5 | glucosamine glutarate | 9.1% | 15475 mm^2 | –
6 | diglucosamine maleate | 34.3% | 19053 mm^2 | –
7 | NCC(=O)O.N[C@H]1C(O)O[C@H](CO)[C@@H](O)[C@@H]1O (some centres unmarked) [glucosamine glycinate] | 39.2% | 19748 mm^2 | –
8 | diglucosamine succinate | 20.8% | 17136 mm^2 | –
9 | diglucosamine adipate | 28.3% | 18189 mm^2 | –
10 | N[C@H]1C(O)O[C@H](CO)[C@@H](O)[C@@H]1O.O=C(O)CCC(=O)O (some centres unmarked) [glucosamine succinate] | 13.5% | 16102 mm^2 | –
11 | glucosamine pimelate | 13.4% | 16088 mm^2 | –
12 | Cl.N[C@H]1C(O)O[C@H](CO)[C@@H](O)[C@@H]1O (some centres unmarked) [glucosamine•HCl, glucosamine hydrochloride] | – | – | volumising benefit (visual comparison) [2]: clearly evident; volume (projection of the switch image on to the screen) ([1]; Batch 1 switches): 14236 mm^2; % benefit ([1]; Batch 1 switches, increase in volume vs water control): 6.7%; volume (projection of the switch image on to the screen) ([1]; Batch 2 switches): 16851 mm^2; % benefit ([1]; Batch 2 switches, increase in volume vs water control): 7.3%
13 | diglucosamine malonate | 34.3% | 19053 mm^2 | –
14 | diglucosamine glutarate | 35.6% | 19234 mm^2 | –
15 | CC(O)C(=O)O.N[C@H]1C(O)O[C@H](CO)[C@@H](O)[C@@H]1O (some centres unmarked) [glucosamine lactate] | 33.6% | 18944 mm^2 | –
16 | diglucosamine pimelate | 27.1% | 18021 mm^2 | –
17 | diglucosamine fumarate | 38.0% | 19575 mm^2 | –
18 | glucosamine 2-pyrrolidone-5-carboxylate [glucosamine PCA] | 37.5% | 19505 mm^2 | –
19 | N[C@H]1C(O)O[C@H](CO)[C@@H](O)[C@@H]1O.O=C(O)CC(=O)O (some centres unmarked) [glucosamine malonate] | 21.6% | 17244 mm^2 | –
20 | diglucosamine aspartate | 39.5% | 19780 mm^2 | –
21 | glucosamine nicotinate | 41.6% | 20087 mm^2 | –
22 | glucosamine aspartate | 30.9% | 18566 mm^2 | –
